Test results from US20230099031A1, “BIFUNCTIONAL AGENTS FOR PROTEIN RECRUITMENT AND/OR DEGRADATION” (Orionis Biosciences, Inc., priority 2019, published 2023).

What was measured:
DHFR = target: T1, DHFR (UniProt P0ABQ4+Q96SW2); assay: Recruitment Assay (MAPPIT-like): DHFR recruitment to CRBN, pCLG-DHFR+pMG1-CRBN; format: cell-based, E. coli; conditions: for EC50: HEK293T cells, luciferase 24 hours after compound treatment, read-out: Recruitment EC50 (M), target protein DHFR
T1 construct: Full size proteins are fused for each of the target proteins tested; expressed in transfected cells; host or cells: HEK293T
Experimental: (§1) In this experimental set-up, cells are transfected with a construct encoding a CRBN-fusion protein and another one encoding a substrate-fusion protein. Test compound activity is assessed with increasing concentrations of test compounds (dose-response studies) to monitor the ability to promote CRBN-ligand-induced protein interaction.
(§2) Full size proteins are fused for each of the target proteins tested, except in the case of IKZF1 where isoform 7 is used, and BRD4, where isoform 3 is applied. For the study, the following construct combinations are used: IKZF1 recruitment: pSEL-CRBN+pMG1-IKZF1(isoform 7); ASS1 recruitment: pSEL-CRBN+pMG1-ASS1; SALL4 recruitment: pSEL-SALL4+pMG1-CRBN; DHFR recruitment: pCLG-DHFR+pMG1-CRBN; ESR1 recruitment: pSEL-CRBN+pMG1-ESR1; BRD4 recruitment: pSEL-CRBN+pMG1-BRD4(isoform 3). Cells are treated with erythropoietin (Epo; where pSEL-type receptor fusions constructs are used) or leptin (in the case pCLG-type receptor fusion constructs are applied) without or with the indicated dose of test compound at 24 hours after transfection. Luciferase activity is measured 24 hours after test compound treatment using the Luciferase Assay System kit (PROMEGA, Madison, Wis.) with an Ensight plate reader (PERKIN ELMER LIFE SCIENCES, Waltham, Mass.). Data points depict fold induction of the average luciferase activity of triplicate samples from Epo or leptin+test compound treated cells versus Epo or leptin only treated cells. Error bars represent standard deviations. Curves are fit using 4-parameter nonlinear regression in […] PRISM software.
Error bars represent standard deviations and curves were fit using 4-parameter nonlinear regression in […] PRISM software.

IKZF1 = target: T2, IKZF1 (Homo sapiens, UniProt Q13422+Q96SW2); assay: Recruitment Assay (MAPPIT-like): IKZF1 recruitment, pSEL-CRBN+pMG1-IKZF1(isoform 7); format: cell-based; conditions: recruitment of IKZF1, protocol of Example 2; read-out: EC50_IKZF1
T2 construct: expressed in transfected cells; host or cells: HEK293T
Experimental: as §1, §2

ASS1 = target: T3, ASS1 (Homo sapiens, UniProt P00966+Q96SW2); assay: Recruitment Assay (MAPPIT-like): ASS1 recruitment, pSEL-CRBN+pMG1-ASS1; format: cell-based; conditions: recruitment of ASS1, protocol of Example 2; for EC50: read-out: EC50_ASS1
T3 construct: Full size proteins are fused for each of the target proteins tested; expressed in transfected cells; host or cells: HEK293T
Experimental: as §1, §2

CRBN = target: T4, CRBN (Homo sapiens, UniProt Q96SW2); assay: Competition Assay: MAPPIT-like, competition with trimethoprim-lenalidomide hybrid ligand for binding to CRBN in HEK293T cells; format: cell-based; conditions: protocol and reagents of Example 1; read-out: IC50 Competition
T4 construct: expressed in transfected cells; host or cells: HEK293T

SALL4 = target: T5, SALL4 (Homo sapiens, UniProt Q96SW2+Q9UJQ4); assay: Recruitment Assay (MAPPIT-like): SALL4 recruitment, pSEL-SALL4+pMG1-CRBN; format: cell-based; conditions: recruitment of SALL4, protocol of Example 2; read-out: EC50_SALL4
T5 construct: Full size proteins are fused for each of the target proteins tested; expressed in transfected cells; host or cells: HEK293T
Experimental: as §1, §2

SMILES	EC50 (DHFR) [M]	EC50 (IKZF1) [nM]	EC50 (ASS1) [nM]	IC50 (CRBN) [nM]	EC50 (SALL4) [nM]	EC50_ASS1 (M) (ASS1)	hybrid ligand-induced binding between CRBN and DHFR (MAPPIT signal, FIG. 3) (DHFR; CRBN as gp130 fusion, DHFR linked to MAPPIT chimeric membrane receptor)
COc1cc(Cc2cnc(N)cc2N)cc(OC)c1OCCCCC(=O)NCCOCCOCCOCCNC(=O)COc1ccc2nc(C(=O)Cc3ccc4c(c3)C(=O)N(C3CCC(=O)NC3=O)C4)ccc2c1 (stereo not drawn) [Compound 5.10]	7.95e-08	–	–	–	–	–	–
COc1cc(Cc2cnc(N)nc2N)cc(OC)c1OCCCCC(=O)NCCOCCOCCOCCNC(=O)c1cccc(CNC(=O)CNc2ccc3c(c2)C(=O)N(C2CCC(=O)NC2=O)C3)c1 (stereo not drawn) [Compound 5.12]	3.55e-08	–	–	–	–	–	–
COc1cc(Cc2cnc(N)nc2N)cc(OC)c1OCCCCC(=O)NCCOCCOCCOCCNC(=O)COc1ccc(Br)c2c1C(=O)N(C1CCC(=O)NC1=O)C2 (stereo not drawn) [Compound 5.13]	4.69e-07	–	–	–	–	–	–
COc1cc(Cc2cnc(N)nc2N)cc(OC)c1OCCCCC(=O)NCCOCCOCCOCCNC(=O)c1ccc2ncnc(Nc3ccc4c(c3)C(=O)N(C3CCC(=O)NC3=O)C4)c2c1 (stereo not drawn) [Compound 5.19]	4.2e-09	–	–	–	–	–	–
COc1cc(Cc2cnc(N)nc2N)cc(OC)c1OCCCCC(=O)NCCOCCOCCOCCNC(=O)c1ccc2c(Nc3ccc4c(c3)C(=O)N(C3CCC(=O)NC3=O)C4)ncnc2c1 (stereo not drawn) [Compound 5.20]	1.01e-08	–	–	–	–	–	–
COc1cc(Cc2cnc(N)nc2N)cc(OC)c1OCCCCC(=O)NCCOCCOCCOCCNC(=O)Cn1cc(CN(C)C(=O)CNc2ccc3c(c2)C(=O)N(C2CCC(=O)NC2=O)C3)cn1 (stereo not drawn) [Compound 5.23]	1.19e-07	–	–	–	–	–	–
COc1cc(Cc2cnc(N)nc2N)cc(OC)c1OCCCCC(=O)NCCOCCOCCOCCNC(=O)CN1CCN(C(=O)CNc2ccc3c(c2)C(=O)N(C2CCC(=O)NC2=O)C3)C(C)C1 (stereo not drawn) [Compound 5.26]	4.5e-07	–	–	–	–	–	–
COc1cc(Cc2cnc(N)nc2N)cc(OC)c1OCCCCC(=O)NCCOCCOCCOCCNC(=O)c1ccc2c(c1)CN(C(=O)CNc1ccc3c(c1)C(=O)N(C1CCC(=O)NC1=O)C3)C2 (stereo not drawn) [Compound 5.46]	1.44e-08	–	–	–	–	–	–
Cc1cccc2nnn(C3CCC(=O)NC3=O)c(=O)c12 (stereo not drawn) [Compound C13247, 3-(5-methyl-4-oxo-1,2,3-benzotriazin-3-yl)piperidine-2,6-dione]	–	2880	8550	2290	402	–	–
CS(=O)(=O)Nc1cccc2c1CN(C1CCC(=O)NC1=O)C2=O (stereo not drawn) [Compound C22548, N-[2-(2,6-dioxo-3-piperidyl)-1-oxo-isoindolin-4-yl]methanesulfonamide]	–	494	–	1110	631	>>	–
O=C1CCC(N2Cc3c(Cl)cccc3C2=O)C(=O)N1 (stereo not drawn) [Compound C24031, 3-(4-chloro-1-oxo-isoindolin-2-yl)piperidine-2,6-dione]	–	58.7	259	11.5	< 13.7	–	–
Cc1cccc2c1CN(C1CCC(=O)NC1=O)C2=O (stereo not drawn) [Compound C28558, 3-(4-methyl-1-oxo-isoindolin-2-yl)piperidine-2,6-dione]	–	77.4	368	50.4	< 13.7	–	–
Cc1ccc2c(c1)CN(C1CCC(=O)NC1=O)C2=O (stereo not drawn) [Compound C28577, 3-(5-methyl-1-oxo-isoindolin-2-yl)piperidine-2,6-dione]	–	1610	653	113	< 13.7	–	–
O=C1CCCC(N2Cc3c(cccc3[N+](=O)[O-])C2=O)C(=O)N1 (stereo not drawn) [Compound C29737, 3-(4-nitro-1-oxo-isoindolin-2-yl)azepane-2,7-dione]	–	1410	–	–	–	–	–
O=C1CCC(N2Cc3c(NC(=O)Nc4cccc5c4CN(C4CCC(=O)NC4=O)C5=O)cccc3C2=O)C(=O)N1 (stereo not drawn) [Compound C30231, 1,3-bis[2-(2,6-dioxo-3-piperidyl)-1-oxo-isoindolin-4-yl]urea]	–	2730	–	247000	1780	>>	–
O=C1CCC(N2Cc3cc(NCC(=O)Nc4ccccc4)ccc3C2=O)C(=O)N1 (stereo not drawn) [Compound C35797, 2-[[2-(2,6-dioxo-3-piperidyl)-1-oxo-isoindolin-5-yl]amino]-N-phenyl-acetamide]	–	1330	–	851	1080	>>	–

SMILES	EC50 (DHFR) [M]	EC50 (IKZF1) [nM]	EC50 (ASS1) [nM]	IC50 (CRBN) [nM]	EC50 (SALL4) [nM]	EC50_ASS1 (M) (ASS1)	hybrid ligand-induced binding between CRBN and DHFR (MAPPIT signal, FIG. 3) (DHFR; CRBN as gp130 fusion, DHFR linked to MAPPIT chimeric membrane receptor)
O=C(CNc1ccc2c(c1)CN(C1CCC(=O)NC1=O)C2=O)NCc1ccccc1 (stereo not drawn) [Compound C35856, N-benzyl-2-[[2-(2,6-dioxo-3-piperidyl)-1-oxo-isoindolin-5-yl]amino]acetamide]	–	1150	–	484	188	>>	–
N#CC1c2ccccc2C(=O)N1C1CCC(=O)NC1=O (stereo not drawn) [Compound C39453, 2-(2,6-dioxo-3-piperidyl)-3-oxo-isoindoline-1-carbonitrile]	–	17100	–	7520	875	–	–
Nc1cccc2c1CN(C1CC(=O)NC1=O)C2=O (stereo not drawn) [Compound C47930, 3-(4-amino-1-oxo-isoindolin-2-yl)pyrrolidine-2,5-dione]	–	784	–	–	–	–	–
N#Cc1cccc2c1CN(C1CCC(=O)NC1=O)C2=O (stereo not drawn) [Compound C48003, 2-(2,6-dioxo-3-piperidyl)-1-oxo-isoindoline-4-carbonitrile]	–	–	–	622	581	>>	–
N#Cc1ccc2c(c1)C(=O)N(C1CCC(=O)NC1=O)C2 (stereo not drawn) [Compound C48007, 2-(2,6-dioxo-3-piperidyl)-3-oxo-isoindoline-5-carbonitrile]	–	1620	–	1340	430	>>	–
O=C1CCC(N2Cc3c(cccc3-c3ccccc3)C2=O)C(=O)N1 (stereo not drawn) [Compound C48014, 3-(1-oxo-4-phenyl-isoindolin-2-yl)piperidine-2,6-dione]	–	1240	921	24.3	62.1	–	–
CC1c2ccccc2C(=O)N1C1CCC(=O)NC1=O (stereo not drawn) [Compound C51383, 3-(1-methyl-3-oxo-isoindolin-2-yl)piperidine-2,6-dione]	–	1520	1700	190	59.3	–	–
Nc1cccc2nnn(C3CCC(=O)NC3=O)c(=O)c12 (stereo not drawn) [Compound C59904, 3-(5-amino-4-oxo-1,2,3-benzotriazin-3-yl)piperidine-2,6-dione]	–	122	698	704	33	–	–
O=C1CCC(N2Cc3c(ccc4c3OCO4)C2=O)C(=O)N1 (stereo not drawn) [Compound C67858, 3-(6-oxo-8H-[1,3]dioxolo[4,5-e]isoindol-7-yl)piperidine-2,6-dione]	–	569	884	106	29.3	–	–
O=C1CCC(N2Cc3cc4c(cc3C2=O)OCO4)C(=O)N1 (stereo not drawn) [Compound C68126, 3-(7-oxo-5H-[1,3]dioxolo[4,5-f]isoindol-6-yl)piperidine-2,6-dione]	–	–	–	564	319	>>	–
N#Cc1ccc(Nc2ccc3c(c2)CN(C2CCC(=O)NC2=O)C3=O)nn1 (stereo not drawn) [Compound C80378, 6-[[2-(2,6-dioxo-3-piperidyl)-1-oxo-isoindolin-5-yl]amino]pyridazine-3-carbonitrile]	–	–	9420	2210	387	–	–
O=C1CCC(N2Cc3cc(Nc4ncc5c(n4)COC5)ccc3C2=O)C(=O)N1 (stereo not drawn) [Compound C80380, 3-[5-(5,7-dihydrofuro[3,4-d]pyrimidin-2-ylamino)-1-oxo-isoindolin-2-yl]piperidine-2,6-dione]	–	1780	–	760	9.89	–	–
O=C1CCC(N2C(=O)c3ccccc3C2O)C(=O)N1 (stereo not drawn) [Compound C89940, 3-(1-hydroxy-3-oxo-isoindolin-2-yl)piperidine-2,6-dione]	–	–	–	3290	438	>>	–
CN(C)c1ccc2c(c1)CN(C1CCC(=O)NC1=O)C2=O (stereo not drawn) [Compound C98103, 3-[5-(dimethylamino)-1-oxo-isoindolin-2-yl]piperidine-2,6-dione]	–	1290	–	145	< 13.7	>>	–
COc1cc(Cc2cnc(N)nc2N)cc(OC)c1OCCCCC(=O)NCCOCCOCCOCCn1cc(CCC(=O)Nc2cccc3c2CN(C2CCC(=O)NC2=O)C3=O)nn1 (stereo not drawn) [TMP-LEN, Trimethoprim-lenalidomide]	1.86e-08	–	–	–	–	–	dose-dependent signal can be observed
O=C(O)CN1CCN(Cc2ccc(COc3cccc4c3CN(C3CCC(=O)NC3=O)C4=O)cc2)CC1 (stereo not drawn) [ZE26-0001, formic acid]	–	4680	–	5760	801	>>	–
